According to PMC9346113, “Therapeutic impact of BET inhibitor BI 894999 treatment: backtranslation from the clinic” (British Journal of Cancer, 2022):
Like-named read-outs stand apart in the source and are kept apart here.

Tests used:
Ty-82 = assay: Combination viability assay, Bliss analysis (CGI), Ty-82; assay type: cell-based, human; details: partner in combination with BI 894999 (10–20 nM)
Procedure: (§1) Viability assays were performed on 96-well flat-bottom microtiter plates and incubated with Alamar Blue solution (Invitrogen, Carlsbad, US-CA). The effects of drug combinations were analysed using the Bliss Independence Model.

Ty-82 BRD4-NUT = assay: Cell proliferation assay (Alamar readout), Ty-82; assay type: cell-based, human; details: read-out: geomean GI50
Procedure: (§2) The NUT Carcinoma cell line Ty-82 was purchased from JCRB Japan No. 1330 and cultivated in RPMI 1640 supplemented with 10% fetal calf serum (FCS). The NC cell lines 10–15, 14169 and 10326 were in-licensed from Christopher French, Brigham & Womens Hospital, Boston, and were cultivated in DMEM supplemented with glutamax and 10% FCS.
as §1
(§3) Dose response curves (96h cell proliferation assay - Alamar readout) on four NC cell lines with BET inhibitor BI 894999. Yellow bar: readout t zero (before adding of compound). Green bar: DMSO control (max proliferation).
(§4) Dose response curves (96h cell proliferation assay - Alamar readout) on four NC cell lines with multiple BET inhibitors.

10–15 BRD4-NUT = assay: Cell proliferation assay (Alamar readout), 10–15; assay type: cell-based, human; details: 96h, read-out: geomean GI50
Procedure: as §2, §1, §3, §4

14169 BRD4-NUT = assay: Cell proliferation assay (Alamar readout), 14169; assay type: cell-based, human; details: 96h, read-out: geomean GI50
Procedure: as §2, §1, §3, §4

10326 BRD3-NUT = assay: Cell proliferation assay (Alamar readout), 10326; assay type: cell-based, human; details: 96h, read-out: geomean GI50
Procedure: as §2, §1, §3, §4

BRD4-NUT = system: T1, BRD4-NUT; assay: Immunofluorescence staining of NUT megadomains, Ty-82; assay type: cell-based, human; details: Ty-82; 30 min treatment
T1 construct: endogenous in cells; host or cells: Ty-82 NUT carcinoma cells
Procedure: Cells were seeded on four-well chamber slides (Merck Millipore, #PEZGS0416). After treatment, cells were fixed with 4% PFA (16% Solution, Thermo Fischer #28908 Paraformaldehyde, diluted 1:4 in PBS), permeabilised with 0,1% TX-100 (Sigma #93443, diluted in PBS). After blocking in blocking buffer (10% normal goat serum, Sigma #G9023–10ml, diluted in blocking solution: 2% BSA/PBS, Sigma #A7284–50ml, diluted 1:15 in PBS), the first antibody mAB rabbit anti-NUT 1:1000 (clone C52B1, Cell Signaling #3625) in blocking buffer was added, followed by incubation with the 2nd antibody goat anti-rabbit Alexa*488 1:1000 (Thermo Fisher, #A-11008) in blocking buffer in the dark. Cells were mounted with ProLong Gold Antifade Mountant with DAPI (Thermo Fisher, #P36931) and analysed using a Laser scanning microscope (LSM700). […]
Immunofluorescence staining of NUT megadomains on NC Ty-82 treated with BI with BI 894999 30nM for 1 h, then changed to 10 nM or 5 nM or 2.5 nM or control for 24 h.

[1] = system: Ty-82 xenograft (BRD4-NUT); assay: Ty-82 NC xenograft model; assay type: in vivo, mice
Description: (§5) Mice were group-housed (8–10 mice per cage) under pathogen-free and controlled environmental conditions (21 ± 1.5 C temperature, 55 ± 10% humidity) in an AAALAC accredited facility and handled according to the institutional, governmental and European Union guidelines (Austrian Animal Protection Laws, GV-SOLAS and FELASA guidelines). Animal studies were approved by the internal ethics committee and the local government committee. Mice were 6- to 8-week-old female CIEA NOG purchased from Taconic, Denmark (NOD.Cg-Prkdc^scid Il2rg^tm1Sug/JicTac). 5 × 10^6 NC tumour cells were injected subcutaneously into the right flank of the mice (1 site per mouse). Mice were randomly distributed between the treatment and the vehicle control when tumours were well established and had reached volumes of 100–150 mm^3. Compounds were suspended in 0.5% Natrosol and administered once daily intra-gastral by gavage needle. Tumour diameters were measured three times a week with a calliper. […] Within each subtopic the p-values of the efficacy parameters were adjusted for multiple comparisons according to Bonferroni–Holm. The p-values of the tolerability parameter remained unadjusted in order not to overlook a possible adverse effect. The level of significance was fixed at α = 5%. An adjusted p-value of less than 0.05 was considered to show a statistically significant difference between the groups. The statistical evaluation was prepared using the software Graph Pad Prism.

[2] = system: 10–15 xenograft (BRD4-NUT); assay: 10–15 NC xenograft model; assay type: in vivo, mice
Description: as §5

[3] = system: 10326 xenograft (BRD3-NUT); assay: 10326 NC xenograft model; assay type: in vivo
Description: as §5

[4] = PK analysis in mouse plasma; assay type: in vivo; details: CIEA NOG (NOD.Cg-Prkdc^scid Il2rg^tm1Sug/JicTac), oral, mice, 5 mg/kg CCS1477, exposure defined as sufficient for a synergistic effect, read-out: plasma concentration at 6 h after compound application
Description: PK analysis in mouse plasma. Oral treatment at the indicated doses. Sampling at the indicated timepoints.

BRD3-NUT = system: T2, BRD3-NUT; assay: IHC of 10326 xenograft tumours, NUT protein; assay type: in vivo, mice; details: day 21, CCS1477 at either dose (5 or 10 mg/kg)
T2 construct: endogenous in cells; host or cells: 10326 NUT carcinoma cells, in culture (A11) and as subcutaneous xenograft tumours in NOG mice (A26)
Procedure: Immunohistochemistry was performed on formalin-fixed, paraffin-embedded tumour tissue using antibodies against human Ki67(Cell Signaling #9027, 1:400 dilution), anti-human mitochondria (Abcam ab92824, 1:1000 dilution) and against endogenous NUT protein (Cell Signaling #3625, 1:50 dilution) used to detect NUT fusion proteins. Digital images of whole tissue sections were acquired using a Leica SCN400 histology scanner (Leica Microsystems). Ki67-positive index was evaluated using Halo Software V. 3.2 (Indica lab). Regions of interest (ROIs) within the tissue sections were first identified using Halo Software via machine learning technology across pathological samples and tissue control, within these ROIs, nuclei were detected and classified as positive or negative based on IHC staining thresholds.
BRD3-NUT 10326 tumor sections after treatment with 2 mg/kg BI 894999, 5 mg/kg or 10 mg/kg CCS1477 and the combination of both. IHC staining for NUT protein.

10–15 xenografts = system: 10–15 xenografts; parameters: method as in PMID 32371576; details: mice bearing 10–15 xenografts; tumour regression not described; cited from earlier work
[5] = mice; 1 mg/kg romidepsin; BI 894999 at clinically relevant doses; data not shown

Which “cell growth inhibition >100% reached at clinically achievable concentrations” value (“cell growth inhibition >100% reached” for short) (Ty-82) does the source give for `CNC(=O)Nc1ccc2c(c1)CC[C@@]21OC(=O)N(CC(=O)N(Cc2ccc(F)cc2)[C@@H](C)C(F)(F)F)C1=O` [A485] here?
Its value is “not”.

With `CO[C@H]1CC[C@H](n2c([C@@H]3CCCC(=O)N3c3ccc(F)c(F)c3)nc3cc(-c4c(C)noc4C)ccc32)CC1` [CCS1477] as the compound, how does the GI50 (Ty-82 BRD4-NUT; Homo sapiens, TY82, 96h) read?
Its GI50 is 38.5 nM.

And the GI50 (10–15 BRD4-NUT; Homo sapiens)?
Its GI50 is 32.9 nM.

What about the GI50 (14169 BRD4-NUT; Homo sapiens) of the same compound?
The GI50 was 62.9 nM.

And the GI50 (10326 BRD3-NUT; Homo sapiens)?
The GI50 was 22.7 nM.

And the “concentration at which BRD4-NUT detaches from chromatin / is re-distributed” value (BRD4-NUT)?
The value was > 1000 nM.

And the “cell growth inhibition >100% reached” value (Ty-82)?
The value was “accomplished”.

And the “TGI (tumour growth inhibition)” value ([1]; 5 mg/kg CCS1477 p.o. daily)?
Its value is 29%.

What about the “TGI (tumour growth inhibition)” value ([1]; 10 mg/kg CCS1477 p.o. daily) of the same compound?
The value was 11%.

What about the TGI ([2]; 5 mg/kg CCS1477) of the same compound?
The TGI was 24%.

And the TGI ([2]; 10 mg/kg CCS1477)?
The TGI was 30%.

What about the TGI ([3]; 5 mg/kg CCS1477) of the same compound?
Its TGI is 65%.

What about the TGI ([3]; 10 mg/kg CCS1477) of the same compound?
The TGI was 88%.

What about the concentration at 6 h [4] of the same compound?
The concentration at 6 h was 200 to 300 nM.

And the “loss of speckled megadomain localisation (NUT staining)” value (BRD3-NUT)?
The value was “not seen”.

Which “cell growth inhibition >100% reached” value (Ty-82) does the source give for `CNC(=O)N1CCc2c(c(N3CCCc4cc(-c5cnn(C)c5)c(C(F)F)cc43)nn2C2CCOCC2)C1` [GNE-781] here?
Its value is “accomplished”.

For `CCNC(=O)C[C@@H]1N=C(c2ccc(Cl)cc2)c2cc(OC)ccc2-n2c(C)nnc21` [GSK525762], which GI50 (Ty-82 BRD4-NUT; Homo sapiens, TY82, 96h) is on record?
Its GI50 is 154 nM.

What about the GI50 (10–15 BRD4-NUT; Homo sapiens) of the same compound?
The GI50 was 113 nM.

And the GI50 (14169 BRD4-NUT; Homo sapiens)?
The GI50 was 55 nM.

What about the GI50 (10326 BRD3-NUT; Homo sapiens) of the same compound?
Its GI50 is 43.6 nM.

With `Cc1sc2c(c1C)C(c1ccc(Cl)cc1)=N[C@@H](CC(=O)OC(C)(C)C)c1nnc(C)n1-2` [JQ1] as the compound, how does the GI50 (Ty-82 BRD4-NUT; 96h) read?
The GI50 was 110 nM.

What about the GI50 (10–15 BRD4-NUT) of the same compound?
The GI50 was 84.4 nM.

What about the GI50 (14169 BRD4-NUT) of the same compound?
Its GI50 is 49.2 nM.

And the GI50 (10326 BRD3-NUT)?
The GI50 was 43.2 nM.

For `Cc1cc(-c2ccc3nc(C4CCOCC4)n(CCOC(F)(F)F)c3c2)cn(C)c1=O` [NEO2734], which GI50 (Ty-82 BRD4-NUT; 96h) is on record?
Its GI50 is 26.5 nM.

And the GI50 (10–15 BRD4-NUT)?
The GI50 was 22.6 nM.

And the GI50 (14169 BRD4-NUT)?
The GI50 was 20.4 nM.

What about the GI50 (10326 BRD3-NUT) of the same compound?
The GI50 was 11.2 nM.

What about the “concentration at which BRD4-NUT detaches from chromatin / is re-distributed” value (BRD4-NUT) of the same compound?
The value was > 100 nM.

And the “efficacy compared to BETi alone” value (10–15 xenografts)?
The value was “greater growth inhibition and significantly improved survival”.

Which “cell growth inhibition >100% reached” value (Ty-82) does the source give for `Cc1[nH]c2ccccc2c1CCNCc1ccc(/C=C/C(=O)NO)cc1` [Panobinostat] here?
The value was “accomplished”.

With `C/C=C1\NC(=O)[C@H]2CSSCC/C=C/[C@H](CC(=O)N[C@H](C(C)C)C(=O)N2)OC(=O)[C@H](C(C)C)NC1=O` [Romidepsin] as the compound, how does the “cell growth inhibition >100% reached” value (Ty-82) read?
The value was “accomplished”.

What about the “benefit when added to BI 894999” value [5] of the same compound?
The value was “did not show benefit”.
